Reference: PMC13266999, “Designing Antibiotics with Inherent Resistance to Efflux as a Strategy to Revive Discovery against Multidrug-Resistant Pathogens” (Journal of Medicinal Chemistry, 2026)
≈ marks a conversion by molar mass, not a printed value. Like-named read-outs stand apart in the source and are kept apart here.

Columns and labels:
E. faecalis = assay: MIC (microbroth dilution); format: cell-based, Enterococcus faecalis
Procedure: (§1) All bacteria were maintained on tryptic soy agar (TSA), except Streptococcus spp., which were maintained on Columbia agar plates containing 5% horse blood. […] Bacteria were grown to stationary phase in liquid culture overnight, with shaking at 200 rpm, before being back diluted to the relevant starting concentration for each assay below. MICs were measured by the microbroth dilution method. […] Absorbance at OD600 was read on a CLARIOstar spectrophotometer (BMG Labtech) and the MIC was defined as the minimum concentration of compound where no visible growth was detected. […] MICs were also performed in the presence of the outer membrane permeator, polymyxin b nonapeptide (PMBN) following the same MIC method but with the following variation. The 2-fold dilution series of compound was prepared as above, then 50 μL of PMBN at a final concentration of 30 μg/mL was added to relevant wells, while 50 μL/well of blank media was added to the remaining wells. Bacteria were then added at 50 μL/well for a starting concentration as above. […] The MICs were read and defined as above. All animal procedures were performed by the contract research organization Pharmacology Discovery Services Taiwan in accordance with the Guide for the Care and Use of Laboratory Animals. The procedures were approved by the Institutional Ethics Committee of Pharmacology Discovery Services Taiwan, Ltd. (approval no. AB127662), in compliance with animal welfare legislation in Taiwan.

E. faecium = assay: MIC (microbroth dilution); format: cell-based, Enterococcus faecium
Procedure: (§2) All bacteria were maintained on tryptic soy agar (TSA), except Streptococcus spp., which were maintained on Columbia agar plates containing 5% horse blood. All bacterial assays were carried out in tryptic soy broth (TSB), except for Streptococcus spp. which were grown in cation-adjusted Mueller Hinton broth containing 2.5% lysed horse blood. Bacteria were grown to stationary phase in liquid culture overnight, with shaking at 200 rpm, before being back diluted to the relevant starting concentration for each assay below. MICs were measured by the microbroth dilution method. […] Absorbance at OD600 was read on a CLARIOstar spectrophotometer (BMG Labtech) and the MIC was defined as the minimum concentration of compound where no visible growth was detected. The compounds were prepared as a DMSO stock and equivalent concentrations of DMSO had no effect on bacterial growth. MICs were also performed in the presence of the outer membrane permeator, polymyxin b nonapeptide (PMBN) following the same MIC method but with the following variation. The 2-fold dilution series of compound was prepared as above, then 50 μL of PMBN at a final concentration of 30 μg/mL was added to relevant wells, while 50 μL/well of blank media was added to the remaining wells. Bacteria were then added at 50 μL/well for a starting concentration as above. Thirty μg/mL of PMBN had no effect on bacterial growth. The MICs were read and defined as above. All animal procedures were performed by the contract research organization Pharmacology Discovery Services Taiwan in accordance with the Guide for the Care and Use of Laboratory Animals. The procedures were approved by the Institutional Ethics Committee of Pharmacology Discovery Services Taiwan, Ltd. (approval no. AB127662), in compliance with animal welfare legislation in Taiwan.

S. haemolyticus = assay: MIC (microbroth dilution); format: cell-based, Staphylococcus haemolyticus; details: SH324
Procedure: as §2

Acinetobacter baumannii = assay: MIC (microbroth dilution); format: cell-based
Procedure: as §2

Pseudomonas aeruginosa = assay: MIC (microbroth dilution); format: cell-based
Procedure: as §2

E. coli = assay: MIC (microbroth dilution); format: cell-based; details: Escherichia coli
Procedure: as §1

A. baumannii = A. baumannii efflux chequerboard assay; format: cell-based, Acinetobacter baumannii; details: for MIC: Acinetobacter baumannii
Procedure: Checkerboard assays were performed by preparing two separate 2-fold dilution series of compounds in two 96 well plates, one horizontally, one vertically. […] Plates were incubated at 37 C for 20 h and the absorbance (OD600) was read on a CLARIOstar spectrophotometer (BMG Labtech). The fractional inhibitory concentration was calculated as follows: ΣFIC = [(MIC of A in combination)/(MIC of A alone)] + [(MIC of B in combination)/(MIC of B alone)].

S. aureus NCTC 13616 = assay: Time-kill assay; format: cell-based; details: 4x MIC, 24 hours
Procedure: Time-kill assays were performed as defined previously.

O=C(O)c1cn(C2CC2)c2cc(N3CCNCC3)c(F)cc2c1=O [Ciprofloxacin, ciprofloxacin, reference compound]
MIC (E. faecalis; EF602): 64 µg/mL (≈ 193 µM)
MIC (E. faecalis; Enterococcus faecalis, NCTC775, NCTC 775, read-out: MIC): 1 µg/mL (≈ 3.02 µM)
MIC (E. faecalis; Enterococcus faecalis, NCTC12204, NCTC 12204, read-out: MIC): 1 µg/mL (≈ 3.02 µM)
MIC (E. faecalis; NCTC 775): 1 µg/mL (≈ 3.02 µM)
MIC (E. faecium; EF205): 128 µg/mL (≈ 386 µM)
MIC (E. faecium; NCTC 12204): 1 µg/mL (≈ 3.02 µM)
MIC (S. haemolyticus): 16 µg/mL (≈ 48.3 µM)
MIC (Acinetobacter baumannii; Acinetobacter baumannii, 86, oxa23): 128 µg/mL (≈ 386 µM)
MIC (Acinetobacter baumannii; Acinetobacter baumannii, 96, oxa23): 128 µg/mL (≈ 386 µM)
MIC (Acinetobacter baumannii; Acinetobacter baumannii, A318): 32 µg/mL (≈ 96.6 µM)
MIC (Acinetobacter baumannii; Acinetobacter baumannii, A319): 32 µg/mL (≈ 96.6 µM)
MIC (Acinetobacter baumannii; Acinetobacter baumannii, A600 colR): 32 µg/mL (≈ 96.6 µM)
MIC (Acinetobacter baumannii; Acinetobacter baumannii, AB01335 adeG183::T26): 4 µg/mL (≈ 12.1 µM)
MIC (Acinetobacter baumannii; Acinetobacter baumannii, AB05215 adeS132::T26): 2 µg/mL (≈ 6.04 µM)
MIC (Acinetobacter baumannii; Acinetobacter baumannii, AB05218 adeS141::T26): 4 µg/mL (≈ 12.1 µM)
MIC (Acinetobacter baumannii; Acinetobacter baumannii, AB05219 adeR103::T26): 4 µg/mL (≈ 12.1 µM)
MIC (Acinetobacter baumannii; Acinetobacter baumannii, AB05222 adeR160::T101): 2 µg/mL (≈ 6.04 µM)
MIC (Acinetobacter baumannii; Acinetobacter baumannii, AB05226 adeA165::T26): 4 µg/mL (≈ 12.1 µM)
MIC (Acinetobacter baumannii; Acinetobacter baumannii, AB05227 adeA138::T26): 2 µg/mL (≈ 6.04 µM)
MIC (Acinetobacter baumannii; Acinetobacter baumannii, AB05228 adeB150::T26): 2 µg/mL (≈ 6.04 µM)
MIC (Acinetobacter baumannii; Acinetobacter baumannii, AB05230 adeB181::T26): 2 µg/mL (≈ 6.04 µM)
MIC (Acinetobacter baumannii; Acinetobacter baumannii, BAA1709, BAA-1709, read-out: MIC): 0.25 µg/mL (≈ 0.754 µM)
MIC (Acinetobacter baumannii; Acinetobacter baumannii, BAA1710, BAA-1710 (AYE), read-out: MIC): 64 µg/mL (≈ 193 µM)
MIC (Acinetobacter baumannii; Acinetobacter baumannii, BAA2093, BAA-2093, read-out: MIC): ≤ 0.125 µg/mL
MIC (Acinetobacter baumannii; Acinetobacter baumannii, NCTC10303, NCTC 10303, read-out: MIC): 0.5 µg/mL (≈ 1.51 µM)
MIC (Acinetobacter baumannii; Acinetobacter baumannii, NCTC12156, NCTC 12156, read-out: MIC): 1 µg/mL (≈ 3.02 µM)
MIC (Acinetobacter baumannii; Acinetobacter baumannii, NCTC13302, NCTC 13302, oxa24, read-out: MIC): 32 µg/mL (≈ 96.6 µM)
MIC (Acinetobacter baumannii; Acinetobacter baumannii, NCTC13424, NCTC 13424, oxa23): > 128 µg/mL
MIC (Acinetobacter baumannii; Acinetobacter baumannii, UKA1, oxa23, read-out: MIC): 8 µg/mL (≈ 24.1 µM)
MIC (Acinetobacter baumannii; Acinetobacter baumannii, UKA2, Low resistance, read-out: MIC): 64 µg/mL (≈ 193 µM)
MIC (Acinetobacter baumannii; Acinetobacter baumannii, UKA9, read-out: MIC): 0.25 µg/mL (≈ 0.754 µM)
MIC (Acinetobacter baumannii; Acinetobacter baumannii, UKA12, oxa23): > 128 µg/mL
MIC (Acinetobacter baumannii; Acinetobacter baumannii, UKA13, oxa23): > 128 µg/mL
MIC (Acinetobacter baumannii; Acinetobacter baumannii, UKA15, oxa23, read-out: MIC): 16 µg/mL (≈ 48.3 µM)
MIC (Acinetobacter baumannii; Acinetobacter baumannii, UKA19, read-out: MIC): 8 µg/mL (≈ 24.1 µM)
MIC (Acinetobacter baumannii; Acinetobacter baumannii, W1, read-out: MIC): 128 µg/mL (≈ 386 µM)
MIC50 (Acinetobacter baumannii; Acinetobacter baumannii, panel of 25 A. baumannii strains): 32 µg/mL (≈ 96.6 µM)
MIC (Acinetobacter baumannii; BAA-1710 (AYE), listed as 1): > 128 µg/mL
MIC (Pseudomonas aeruginosa; NCTC 13437): 64 µg/mL (≈ 193 µM)
MIC (Pseudomonas aeruginosa; Pseudomonas aeruginosa, PAO1, PAO1): 0.25 µg/mL (≈ 0.754 µM)
MIC (E. coli; 319238/UR): > 128 µg/mL
MIC (E. coli; LEC077): 0.25 µg/mL (≈ 0.754 µM)
MIC (E. coli; LEC081): 0.25 µg/mL (≈ 0.754 µM)
MIC +50 (0.25x MIC) (A. baumannii; A. baumannii ATCC 17978): 0.0017 to 0.188 µg/mL
MIC +50 (0.5x MIC) (A. baumannii; A. baumannii ATCC 17978): 0.007 to 0.055 µg/mL
MIC +50 (0.25x MIC) (A. baumannii; A. baumannii AYE): 3.5 to 15.5 µg/mL
MIC +50 (0.5x MIC) (A. baumannii; A. baumannii AYE): 0.188 to 0.9 µg/mL
MIC (A. baumannii; ATCC17978, read-out: MIC alone): 0.25 µg/mL
MIC (A. baumannii; read-out: MIC alone): 64 µg/mL
time-kill profile (S. aureus NCTC 13616): comparable bacteriostatic profiles
